# Assay results from ChEMBL document CHEMBL4417631, “Oral peptide inhibitors of interleukin-23 receptor and their use to treat inflammatory bowel diseases” (2017).
# *1 amine or outer side, *2 acyl side, *3 side chain or, on linkers, in order; H or OH if unused. Where a SMILES comes first, the peptide text is derived from it. Bridges are numbered along the chain shown (N, C = ends). [ ]: non-standard residue; d: D form. Abu(4-yl) = O=C([C@H](CC[*:3])N[*:1])[*:2]; Pen = CC(C)(S)[C@H](N)C(=O)O; hLeu = CC(C)CC[C@H](N)C(=O)O
# How the values were obtained:
# Interleukin-23 receptor [1] = target: T1, Interleukin-23 receptor (Homo sapiens, UniProt Q5VWK5); assay: Inhibition of interleukin-23 binding to human interleukin-23 receptor incubated for 2 hrs by competitive binding ELISA
# T1 sequence (Q5VWK5 whole entry): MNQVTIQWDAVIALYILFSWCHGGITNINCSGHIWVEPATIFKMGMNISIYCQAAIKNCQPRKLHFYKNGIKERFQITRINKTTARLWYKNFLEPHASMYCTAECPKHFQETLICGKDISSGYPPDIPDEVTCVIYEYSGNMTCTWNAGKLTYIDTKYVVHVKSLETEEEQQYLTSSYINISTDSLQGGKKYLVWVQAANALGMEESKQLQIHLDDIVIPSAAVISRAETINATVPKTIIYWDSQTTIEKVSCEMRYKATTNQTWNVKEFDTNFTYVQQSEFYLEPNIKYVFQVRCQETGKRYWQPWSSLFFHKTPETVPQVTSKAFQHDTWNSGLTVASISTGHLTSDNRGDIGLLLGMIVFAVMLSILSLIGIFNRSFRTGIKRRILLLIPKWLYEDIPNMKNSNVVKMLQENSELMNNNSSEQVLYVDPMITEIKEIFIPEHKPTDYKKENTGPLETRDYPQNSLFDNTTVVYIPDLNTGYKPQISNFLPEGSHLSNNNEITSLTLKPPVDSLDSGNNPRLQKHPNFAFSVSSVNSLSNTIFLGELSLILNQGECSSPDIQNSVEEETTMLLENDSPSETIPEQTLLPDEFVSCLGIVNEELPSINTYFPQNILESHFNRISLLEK
# Interleukin-23 receptor [2] = target: T1, Interleukin-23 receptor; assay: Inhibition of interleukin-23 receptor in human DB cells assessed as reduction in IL-23-stimulated STAT3 phosphorylation incubated for 30 mins by HTRF assay; format: cell-based
# [3] = Half life in simulated intestinal fluid at 20 uM by LC-MS/MS analysis; format: ADME
Compound,IC50 (Interleukin-23 receptor [1]),IC50 (Interleukin-23 receptor [2]),half-life at 20 µM [3]
CC(=O)NCCCC[C@H](NC(=O)[C@H](CCCN)NC(=O)[C@H](Cc1ccc2ccccc2c1)NC(=O)[C@H](Cc1ccc(OCCN)cc1)NC(=O)[C@@H]1CSCC[C@H](NC(C)=O)C(=O)N[C@@H](CCC(N)=O)C(=O)N[C@@H]([C@@H](C)O)C(=O)N[C@@H](Cc2c[nH]c3ccccc23)C(=O)N[C@@H](CCC(N)=O)C(=O)N1)C(=O)N[C@@H](CC(N)=O)C(=O)NCC(N)=O,10 to 25 nM,10 to 25 nM,< 1 h
CC(=O)NC[C@H](NC(=O)[C@H](CCCN)NC(=O)[C@H](Cc1c[nH]c2ccccc12)NC(=O)[C@H](Cc1ccc(OCCN)cc1)NC(=O)[C@@H]1CSCC[C@H](NC(C)=O)C(=O)N[C@@H](CCC(N)=O)C(=O)N[C@@H]([C@@H](C)O)C(=O)N[C@@H](Cc2c[nH]c3ccccc23)C(=O)N[C@@H](CCC(N)=O)C(=O)N1)C(=O)N[C@@H](CC(N)=O)C(=O)NCC(N)=O,100 to 1000 nM,,< 1 h
CC(=O)NCCCC[C@H](NC(=O)[C@](C)(CCCCN)NC(=O)[C@H](Cc1ccc2ccccc2c1)NC(=O)[C@H](Cc1ccc(Oc2ccccc2)cc1)NC(=O)[C@@H]1CSCC[C@H](NC(C)=O)C(=O)N[C@@H](CCC(N)=O)C(=O)N[C@@H]([C@@H](C)O)C(=O)N[C@@H](Cc2c[nH]c3ccccc23)C(=O)N[C@@H](CCC(N)=O)C(=O)N1)C(=O)N[C@@H](CC(N)=O)C(=O)NCC(N)=O,100 to 1000 nM,,> 6 h
CC(=O)NCCCC[C@H](NC(=O)[C@](C)(CCCCN)NC(=O)[C@H](Cc1ccc2ccccc2c1)NC(=O)[C@H](Cc1c(C)cc(O)cc1C)NC(=O)[C@@H]1CSCC[C@H](NC(C)=O)C(=O)N[C@@H](CCC(N)=O)C(=O)N[C@@H]([C@@H](C)O)C(=O)N[C@@H](Cc2c[nH]c3ccccc23)C(=O)N[C@@H](CCC(N)=O)C(=O)N1)C(=O)N[C@@H](CC(N)=O)C(=O)NCC(N)=O,> 1000 nM,,> 6 h
CC(=O)N[C@H](C(=O)N[C@@H](CCC(N)=O)C(=O)N[C@H](C(=O)N[C@@H](Cc1c[nH]c2ccccc12)C(=O)N[C@@H](CCC(N)=O)C(=O)N[C@H](C(=O)N[C@@H](Cc1ccc(O)cc1)C(=O)N[C@@H](Cc1c[nH]c2ccccc12)C(=O)N(C)[C@@H](CCCNC(=N)N)C(=O)N[C@@H](CCC(=O)O)C(=O)N[C@@H](CC(N)=O)C(=O)NCC(N)=O)C(C)(C)S)[C@@H](C)O)C(C)(C)S,> 30000 nM,,2 to 3 h
CCCCCCCC[C@H](NC(=O)[C@H](Cc1ccc(OC)cc1)NC(=O)[C@@H]1CSCC[C@H](NC(C)=O)C(=O)N[C@@H](CCC(N)=O)C(=O)N[C@@H]([C@@H](C)O)C(=O)N[C@@H](Cc2c[nH]c3ccccc23)C(=O)N[C@@H](CCC(N)=O)C(=O)N1)C(=O)N[C@@](C)(CCCCN)C(=O)N[C@@H](CCCCNC(C)=O)C(=O)N[C@@H](CC(N)=O)C(=O)NCC(N)=O,10000 nM,,1 to 2 h
CC(=O)N[C@H]1CCSC[C@@H](C(=O)N[C@@H](Cc2ccc(OCCN)cc2)C(=O)N[C@@H](Cc2c[nH]c3ccccc23)C(=O)N[C@@H](CCCN)C(=O)N[C@@H](CN)C(=O)N[C@@H](CC(N)=O)C(=O)NCC(N)=O)NC(=O)[C@H](CCC(N)=O)NC(=O)[C@H](Cc2c[nH]c3ccccc23)NC(=O)[C@H]([C@@H](C)O)NC(=O)[C@H](CCC(N)=O)NC1=O,100 to 1000 nM,,< 1 h
COc1ccc(CC[C@H](NC(=O)[C@@H]2CSCC[C@H](NC(C)=O)C(=O)N[C@@H](CCC(N)=O)C(=O)N[C@@H]([C@@H](C)O)C(=O)N[C@@H](Cc3c[nH]c4ccccc34)C(=O)N[C@@H](CCC(N)=O)C(=O)N2)C(=O)N[C@@H](Cc2ccc3ccccc3c2)C(=O)N[C@@](C)(CCCCN)C(=O)N[C@@H](CCCCNC(C)=O)C(=O)N[C@@H](CC(N)=O)C(=O)NCC(N)=O)cc1OC,> 1000 nM,,3 to 6 h
CC(=O)NC[C@H](NC(=O)[C@H](CCCN)NC(=O)[C@H](Cc1ccc2ccccc2c1)NC(=O)[C@H](Cc1ccc(OCCN)cc1)NC(=O)[C@@H]1CSCC[C@H](NC(C)=O)C(=O)N[C@@H](CCC(N)=O)C(=O)N[C@@H]([C@@H](C)O)C(=O)N[C@@H](Cc2c[nH]c3ccccc23)C(=O)N[C@@H](CCC(N)=O)C(=O)N1)C(=O)N[C@@H](CC(N)=O)C(=O)NCC(N)=O,25 to 100 nM,,< 1 h
CC(=O)NCCCC[C@H](NC(=O)[C@](C)(CCCCN)NC(=O)[C@H](Cc1ccc2ccccc2c1)NC(=O)[C@H](Cc1ccc(Cl)c(Cl)c1)NC(=O)[C@@H]1CSCC[C@H](NC(C)=O)C(=O)N[C@@H](CCC(N)=O)C(=O)N[C@@H]([C@@H](C)O)C(=O)N[C@@H](Cc2c[nH]c3ccccc23)C(=O)N[C@@H](CCC(N)=O)C(=O)N1)C(=O)N[C@@H](CC(N)=O)C(=O)NCC(N)=O,100 to 1000 nM,25 to 100 nM,2 to 3 h
CC(=O)N[C@H]1CCSC[C@@H](C(=O)N[C@@H](Cc2ccc(OCCN)cc2)C(=O)N[C@@H](Cc2c[nH]c3ccccc23)C(=O)N[C@@H](CCCN)C(=O)N[C@@H](CCC(=O)O)C(=O)N[C@@H](CC(N)=O)C(=O)NCC(N)=O)NC(=O)[C@H](CCC(N)=O)NC(=O)[C@H](Cc2c[nH]c3ccccc23)NC(=O)[C@H]([C@@H](C)O)NC(=O)[C@H](CCC(N)=O)NC1=O,25 to 100 nM,,< 1 h
CC(=O)N[C@H](C(=O)N[C@@H](CCC(N)=O)C(=O)N[C@H](C(=O)N[C@@H](Cc1c[nH]c2ccccc12)C(=O)N[C@@H](CCC(N)=O)C(=O)N[C@H](C(=O)N[C@@H](Cc1ccc(O)cc1)C(=O)N[C@@H](Cc1c[nH]c2ccccc12)C(=O)N[C@H](CC(N)=O)C(=O)N[C@@H](CCC(=O)O)C(=O)N[C@@H](CC(N)=O)C(=O)NCC(N)=O)C(C)(C)S)[C@@H](C)O)C(C)(C)S,1000 to 10000 nM,,3 to 6 h
CC(=O)N[C@@H](CS)C(=O)N[C@@H](CCC(N)=O)C(=O)N[C@H](C(=O)N[C@@H](Cc1c[nH]c2ccccc12)C(=O)N[C@@H](CCC(N)=O)C(=O)N[C@H](C(=O)N[C@@H](Cc1ccc(O)cc1)C(=O)N[C@@H](Cc1c[nH]c2ccccc12)C(=O)N[C@H](CC(N)=O)C(=O)N[C@@H](CCC(=O)O)C(=O)N[C@@H](CC(N)=O)C(=O)NCC(N)=O)C(C)(C)S)[C@@H](C)O,1000 to 10000 nM,,< 1 h
CCCCCCCC[C@H](NC(=O)[C@@H]1CSCC[C@H](NC(C)=O)C(=O)N[C@@H](CCC(N)=O)C(=O)N[C@@H]([C@@H](C)O)C(=O)N[C@@H](Cc2c[nH]c3ccccc23)C(=O)N[C@@H](CCC(N)=O)C(=O)N1)C(=O)N[C@@H](Cc1ccc2ccccc2c1)C(=O)N[C@@](C)(CCCCN)C(=O)N[C@@H](CCCCNC(C)=O)C(=O)N[C@@H](CC(N)=O)C(=O)NCC(N)=O,10000 nM,,< 1 h
COc1ccc(C[C@H](NC(=O)[C@@H](NC(=O)[C@H](CCC(N)=O)NC(=O)[C@H](Cc2c[nH]c3ccccc23)NC(=O)[C@@H](NC(=O)[C@H](CCC(N)=O)NC(=O)[C@@H](NC(C)=O)C(C)(C)S)[C@@H](C)O)C(C)(C)S)C(=O)N[C@@H](Cc2ccc3ccccc3c2)C(=O)N[C@@](C)(CCCN)C(=O)N[C@@H](CCCCNC(C)=O)C(=O)N[C@@H](CC(N)=O)C(=O)NCC(N)=O)cc1,100 to 1000 nM,25 to 100 nM,
CC(=O)N[C@H]1CCSC(C)(C)[C@@H](C(=O)N[C@@H](Cc2ccc(O)cc2)C(=O)N[C@@H](Cc2c[nH]c3ccccc23)C(=O)N[C@@H](CCC(C)C)C(=O)N[C@@H](CCC(=O)O)C(=O)N[C@@H](CC(N)=O)C(=O)NCC(N)=O)NC(=O)[C@H](CCC(N)=O)NC(=O)[C@H](Cc2c[nH]c3ccccc23)NC(=O)[C@H]([C@@H](C)O)NC(=O)[C@H](CCC(N)=O)NC1=O (Ac-[Abu(4-yl)]QTWQ[Pen]YW[hLeu]ENG-NH2; thioether 1-6),> 1000 nM,,< 1 h
CC(=O)N[C@H]1CCSC[C@H](C(=O)N[C@@H](Cc2ccc(O)cc2)C(=O)N[C@@H](Cc2c[nH]c3ccccc23)C(=O)N[C@@H](CCC(C)C)C(=O)N[C@@H](CCC(=O)O)C(=O)N[C@@H](CC(N)=O)C(=O)NCC(N)=O)NC(=O)[C@H](CCC(N)=O)NC(=O)[C@H](Cc2c[nH]c3ccccc23)NC(=O)[C@H]([C@@H](C)O)NC(=O)[C@H](CCC(N)=O)NC1=O,> 1000 nM,,1 to 2 h
COc1ccc(C[C@H](NC(=O)[C@@H]2CSCC[C@H](NC(C)=O)C(=O)N[C@@H](CCC(N)=O)C(=O)N[C@@H]([C@@H](C)O)C(=O)N[C@@H](Cc3c[nH]c4ccccc34)C(=O)N[C@@H](CCC(N)=O)C(=O)N2)C(=O)N[C@@H](Cc2ccc3ccccc3c2)C(=O)N[C@@H](CCCN)C(=O)N[C@@H](CCCCNC(C)=O)C(=O)N[C@@H](CC(N)=O)C(=O)NCC(N)=O)cc1,100 to 1000 nM,,> 6 h
CC(=O)N[C@H]1CCSC[C@@H](C(=O)N[C@@H](Cc2ccc(OCCN)cc2)C(=O)N[C@@H](Cc2ccc3ccccc3c2)C(=O)N[C@@H](CCCN)C(=O)N[C@@H](CN)C(=O)N[C@@H](CC(N)=O)C(=O)NCC(N)=O)NC(=O)[C@H](CCC(N)=O)NC(=O)[C@H](Cc2c[nH]c3ccccc23)NC(=O)[C@H]([C@@H](C)O)NC(=O)[C@H](CCC(N)=O)NC1=O,25 to 100 nM,25 to 100 nM,< 1 h
